Test results taken from patent US20250186404A1, “METHODS OF USING A (THIAZOLYL)BENZENESULFONAMIDE DERIVATIVE” (Cyteir Therapeutics, Inc., priority 2023, published 2025).

Columns and labels:
[1] = test system: Daudi (Burkitt Lymphoma) cells; test: Intracellular Lactate Accumulation Assay (Lactate-Glo); assay type: cell-based, human
Method: Intracellular lactate accumulation after a 2 h treatment with compounds of the present invention was measured in Daudi (Burkitt Lymphoma) cells using the Lactate-Glo Assay (Promega).
Daudi cells were seeded at 7,500 cells per well in 150 μL of growth medium (RPMI-1640 with 2 mM GlutaMAX+10% FBS) in clear, 96-well, flat-bottom microplates, and incubated overnight (37° C., 5% CO2). Compounds of the present invention were added using an INTEGRA VIAFLO 96 (8 point, 3-fold serial dilution, top concentration 1, 10, or 20 μM, 0.4% final DMSO concentration). After a 2 h incubation (37° C., 5% CO2) microplates containing cells were washed twice with 150 μL ice-cold PBS, resuspended in 25 μL ice-cold PBS containing 12.5 μL 0.6N HCl, and placed on a microplate shaker for 5 min to lyse the cells. Following lysis, 12.5 μL 1M Trizma base was added to neutralize the suspension, and microplates were returned to the microplate shaker for 1 min. Plates were sealed and stored at −20° C. until further processing. On the day of the assay, microplates were thawed for 45 min at room temperate and 50 μL Lactate Detection Reagent (prepared as specified by manufacturer) was added to each well. Microplates were placed on a plate shaker for 1 min and incubated at room temperature for 1 h. Luminescence was measured using a BioTek Cytation 5 Multi-Mode Reader. Curve fitting and calculation of EC50 was performed using GraphPad Prism.
In addition, Daudi human lymphoma cells were treated with a titration of Compound 67A for 4 h, then intracellular lactate was measured via LactateGlo (FIG. 2). Compound 67A treatment elevates intracellular lactate (FIGS. 3-5). […] Inhibiting MCT function in glycolytic cancer cells leads to an accumulation of intracellular lactate that impairs glycolysis and inhibits tumor cell growth, thereby making MCTs an attractive target for cancer therapy. Compound 67A inhibits the import of MCT ligands into cells, and induces dose-dependent intracellular lactate accumulation that correlates with cytotoxicity. MCT4 expression inversely correlates with lactate accumulation and the extent of Compound 67A cytotoxicity in cells.

Pfeiffer = test: Compound 67A sensitivity of CRISPR screen cell line Pfeiffer; assay type: cell-based; settings: Homo sapiens, Lymphoma
From the text: (§1) Three cell lines with varying sensitivities to Compound 67A were utilized in the CRISPR screen (Table 3, FIG. 11).

T47D = test: Compound 67A sensitivity / cell growth inhibition of CRISPR screen cell line T47D; assay type: cell-based
From the text: as §1
Screen hits (FDR<0.2) were identified using the drugZ algorithm (FIG. 13). MCT4 was the most significant hit consistent between the SU8686 and T47D cell lines, sensitizing both lines to Compound 67A treatment.

SU8686 = test: Compound 67A sensitivity of CRISPR screen cell line SU8686; assay type: cell-based; settings: Homo sapiens, SU.86.86; SU8686, Pancreatic Cancer
From the text: as §1

MCT1/BSG complex = target: T1, MCT1/BSG complex (Homo sapiens, UniProt P53985); test: Microscale thermophoresis (MST) direct binding; settings: purified hexahistidine-tagged MCT1/BSG complex, read-out: Kd, binding to MCT1/basigin
T1 sequence (P53985 1-500): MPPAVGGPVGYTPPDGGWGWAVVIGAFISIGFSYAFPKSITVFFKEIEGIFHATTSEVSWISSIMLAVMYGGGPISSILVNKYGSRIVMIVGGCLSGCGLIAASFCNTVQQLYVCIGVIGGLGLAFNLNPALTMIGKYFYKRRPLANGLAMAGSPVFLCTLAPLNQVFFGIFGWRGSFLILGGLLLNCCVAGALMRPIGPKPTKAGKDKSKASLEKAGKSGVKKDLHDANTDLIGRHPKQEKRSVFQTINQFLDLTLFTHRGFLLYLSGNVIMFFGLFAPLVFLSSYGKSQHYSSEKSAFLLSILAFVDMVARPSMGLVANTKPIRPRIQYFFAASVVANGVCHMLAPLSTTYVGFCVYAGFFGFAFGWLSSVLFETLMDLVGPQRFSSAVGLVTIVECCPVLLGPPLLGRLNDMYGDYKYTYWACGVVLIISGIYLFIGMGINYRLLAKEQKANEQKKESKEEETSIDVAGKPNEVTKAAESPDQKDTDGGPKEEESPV
T1 sequence (P35613 140-385 partner limits assumed): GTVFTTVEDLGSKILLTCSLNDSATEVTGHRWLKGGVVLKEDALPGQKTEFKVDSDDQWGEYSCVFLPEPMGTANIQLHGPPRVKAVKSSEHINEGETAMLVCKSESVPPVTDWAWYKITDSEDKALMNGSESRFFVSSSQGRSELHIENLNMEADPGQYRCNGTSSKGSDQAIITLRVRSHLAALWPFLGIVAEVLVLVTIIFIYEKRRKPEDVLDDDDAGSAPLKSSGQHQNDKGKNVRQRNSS
From the text: Microscale thermophoresis (MST) monitors the solution phase change in protein fluorescence and mobility in response to a temperature gradient created with an infrared laser. The method is compatible with detergent solubilized proteins and enables measurement of direct ligand binding.
Purified hexahistidine-tagged MCT1/BSG complex was mixed with a hexahistidine interacting fluorescent dye and MST was monitored as a function of compound concentration.

[2] = test system: Daudi human lymphoma cells; test: Reversal of 3-bromopyruvate-induced cytotoxicity; assay type: cell-based; settings: 3-bromopyruvate (MCT1 substrate)
Method: Compound 67A data across 439 cell lines was cross-compared with available DepMap gene essentiality data and gene expression data. A genome-wide CRISPR screen identified genes that influenced sensitivity to Compound 67A. MDCKII cells expressing human MCT1 were treated with Compound 67A and transport of the MCT1 substrate, 2-thiophene-glyoxylic acid, was quantified by LC-MS. Compound 67A-mediated reversal of cytotoxicity induced by 3-bromopyruvate, an MCT1 substrate, was measured in Daudi human lymphoma cells. Lactate was measured using Lactate-Glo. Extracellular acidification and O2 consumption were measured by Seahorse.

[3] = test system: ES2 ovarian cancer cell line; test: ES2 cytotoxicity (Cytotox Green) and cell viability (CellTiterGlo, NCI method); assay type: cell-based
Method: MCT4 was over-expressed in ES2 cells following lentiviral transduction. Cell viability was assessed in empty vector (EV) control and MCT4 over-expressing cells after Compound 67A treatment and relative cell growth was quantified using the NCI method (FIG. 10).
The ES2 ovarian cancer cell line was treated with a titration of Compound 67A, and cytotoxicity was assessed after 24 hours of treatment with Cytotox Green and cell viability after 96 hours with CellTiterGlo (FIG. 18).

Question: For CC(C)OC(=O)Nc1ccc(-c2cnc([C@H]3CC[C@H](NC(=O)OC(C)C)CC3)s2)c(S(=O)(=O)NC(C)(C)C)c1 [Compound 67A], which IC50 ([1]; Daudi human lymphoma cells, 4 h treatment, LactateGlo, read-out: induces lactate accumulation, IC50) is on record?
Answer: 370 nM

Question: And the EC50 ([1]; Homo sapiens, Daudi cells, 2 h treatment, intracellular lactate accumulation, read-out: LactateGlo EC50)?
Answer: 150 to 1000 nM

Question: What about the IC50 (Pfeiffer) of the same compound?
Answer: 520 nM

Question: And the IC50 (T47D; Homo sapiens, T47D, Breast Cancer)?
Answer: 5860 nM

Question: What about the “effect of MCT4 knockout on cell growth inhibition” value (T47D; T47D cells, MCT4 knockout) of the same compound?
Answer: enhanced Compound 67A-mediated cell growth inhibition

Question: What about the IC50 (SU8686) of the same compound?
Answer: > 20000 nM

Question: And the Kd (MCT1/BSG complex)?
Answer: 89 nM

Question: And the “protection from cytotoxic effects of 3-bromopyruvate” value [2]?
Answer: protected cells from the cytotoxic effects of 3-bromopyruvate

Question: And the cytotoxic response ([3]; ES2, Cytotox Green after 24 hours and CellTiterGlo after 96 hours)?
Answer: induced a clear cytotoxic response

Question: And the “effect of MCT4 over-expression on anti-proliferative effects” value ([3]; ES2 MCT4 over-expressing vs empty vector control, NCI method)?
Answer: significantly reduced Compound 67A-mediated anti-proliferative effects
